Experimental data taken from EPA's ToxValDB 9.5 (doi:10.2903/j.efsa.2011.2088).

What was measured:
Apis mellifera = conditions: acute; duration: 48 hours; dermal; mortality
Tagia sp. = conditions: mortality
Bibionidae = conditions: chronic/long-term; duration: 28 days
Oncorhynchus mykiss = conditions: acute; duration: 96 hours; mortality
Pimephales promelas = conditions: chronic/long-term; duration: 34 days; reproduction
Folsomia candida = conditions: chronic/long-term; duration: 28 days
Anas platyrhynchos = conditions: short-term; oral; feed; mortality
Canidae = conditions: chronic; duration: 1 years; oral; diet; M/F; Beagle; hematological
Colinus virginianus = conditions: for LD50: acute, oral, mortality
Daphnia magna = conditions: chronic/long-term; duration: 21 days; mortality
Aphidius rhopalosiphi = assay: LR50; higher = less toxic; conditions: not reported; mortality
Typhlodromus pyri = assay: LR50; higher = less toxic; conditions: not reported; mortality

Question: `O=C(NC(=O)c1c(F)cccc1F)Nc1ccc(Oc2ccc(C(F)(F)F)cc2Cl)cc1F` [Flufenoxuron] was tested. Which LD50 (Apis mellifera) did it give?
Answer: > 100 µg/piece

Question: What about the LC50 (Tagia sp.; acute, duration: 14 days) of the same compound?
Answer: > 1000 mg/kg

Question: What about the NOEC (Tagia sp.; chronic/long-term, duration: 56 days) of the same compound?
Answer: 5 mg/kg

Question: What about the NOEC (Bibionidae) of the same compound?
Answer: 3.6e-05 mg/L

Question: And the LD50 (Rattus norvegicus; acute, oral, mortality)?
Answer: > 3000 mg/kg-day

Question: What about the NOAEL (Rattus norvegicus; reproduction developmental, growth) of the same compound?
Answer: 4.3 mg/kg-day

Question: And the LC50 (Oncorhynchus mykiss)?
Answer: > 5 ng/mL

Question: What about the NOEC (Pimephales promelas) of the same compound?
Answer: 0.00082 mg/L

Question: What about the NOEC (Folsomia candida) of the same compound?
Answer: 0.11 mg/kg

Question: And the LD50 (Anas platyrhynchos)?
Answer: > 1240 mg/kg-day

Question: What about the NOAEL (Canidae) of the same compound?
Answer: ≤ 3.8 mg/kg-day

Question: What about the LD50 (Colinus virginianus; diet) of the same compound?
Answer: > 1240 mg/kg-day

Question: What about the LD50 (Colinus virginianus) of the same compound?
Answer: > 2000 mg/kg-day

Question: What about the NOEL (Colinus virginianus; reproduction developmental) of the same compound?
Answer: 9.76 mg/kg-day

Question: And the NOEC (Daphnia magna)?
Answer: 3.24e-06 mg/L

Question: And the LR50 (Aphidius rhopalosiphi)?
Answer: > 386 g/ha

Question: What about the LR50 (Typhlodromus pyri) of the same compound?
Answer: 73 g/ha
